This data set is described as follows: Solubilization of cannabinoids in NaOH and KOH solutions. Type of data set: physicochemical. The protocol:
Concentration Selection: NaOH and KOH solutions having concentrations ranging from 0M to 2M were prepared and tested for their ability to solubilize D9THCA and CBDA. […] All forms of cannabinoids were extracted using NaOH and KOH. It was also determined that neutral cannabinoids were removed from the plant to a much less extent during base extraction.

Turning to `C=C(C)[C@@H]1CCC(C)=C[C@H]1c1c(O)cc(CCCCC)c(C(=O)O)c1O` [CBDA, cannabidolic acid], the Solubility entry (NaOH and KOH solutions, concentrations ranging from 0M to 2M) is given as “higher than D9THC”.
For `CCCCCc1cc2c(c(O)c1C(=O)O)[C@@H]1C=C(C)CC[C@H]1C(C)(C)O2` [D9THCA, tetrahydrocannabinolic acid], under “NaOH/KOH solution above 0.3M”, the “Degradation by strong base” value is given as “begins to noticeable degrade”.

The values are drawn from US20240285705A1, “AQUEOUS EXTRACTION OF CANNABINOIDS” (Curaleaf, Inc., priority 2023, published 2024).
